Assay results reported in PMC11470957, “Principles of paralog-specific targeted protein degradation engaging the C-degron E3 KLHDC2” (Nature Communications, 2024).
Values joined by “and” are separate entries in the source; they are usually repeats but may differ in a detail not shown here. Identical values can stand only once. Like-named read-outs stand apart in the source and are kept apart here.

Experiments:
[1] = biological target: BRD4 (Homo sapiens, UniProt O60885); test: Western blot of BRD4 levels after cellular dosing; conditions: for BRD4 level relative to DMSO (100%): 5µM
[2] = system: BD2 domain from BRD2, BRD3, or BRD4 / neddylated CRL2^KLHDC2; test: Pulse-chase PROTAC-dependent ubiquitylation of BRD BD2 domains by neddylated CRL2^KLHDC2; conditions: prodrug tested
[3] = biological target: T1, KLHDC2 (Homo sapiens, UniProt Q9Y2U9); test: Western blot of KLHDC2 levels after cellular dosing
T1 sequence (Q9Y2U9 1-406): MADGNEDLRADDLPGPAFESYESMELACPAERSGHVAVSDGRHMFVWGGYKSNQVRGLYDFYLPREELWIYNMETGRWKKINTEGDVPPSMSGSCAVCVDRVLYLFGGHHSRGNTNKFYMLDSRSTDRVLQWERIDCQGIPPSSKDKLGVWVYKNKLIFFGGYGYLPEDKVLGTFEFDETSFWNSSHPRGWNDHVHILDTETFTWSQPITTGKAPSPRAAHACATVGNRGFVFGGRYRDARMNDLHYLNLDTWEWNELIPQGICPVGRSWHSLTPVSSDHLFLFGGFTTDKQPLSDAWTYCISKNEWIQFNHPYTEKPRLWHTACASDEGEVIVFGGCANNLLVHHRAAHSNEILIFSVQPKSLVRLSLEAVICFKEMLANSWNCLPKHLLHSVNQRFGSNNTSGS

COC(=O)CNC(=O)Cc1csc(-c2ccc3cccc(OCCN4CCN(C(=O)C[C@@H]5N=C(c6ccc(Cl)cc6)c6c(sc(C)c6C)-n6c(C)nnc65)CC4)c3c2)n1 [SJ46420]
BRD4 level relative to DMSO (100%) ([1]; U2OS, 8hr, Fig S6i): 176 +/- 28% | BRD4 level relative to DMSO (100%) ([1]; U2OS, 8hr, Fig S6h): 69 +/- 4.4% | BRD4 level relative to DMSO (100%) ([1]; U2OS, 24 h, Fig 6b): 74 +/- 4.1% | BRD4 level relative to DMSO (100%) ([1]; U2OS, 24hr, Fig S6h): 60 +/- 5.6% | Dmax ([1]; U2OS, read-out: BRD4 Dmax, U2OS KO/Rescue, 24 h dose): 99.4% | Dmax ([1]; read-out: BRD4 Dmax, PC3, 24 h dose): 59.5% | ubiquitylation of BRD3BD2 in reconstituted biochemical assays [2]: unable to promote ubiquitylation | KLHDC2 level relative to DMSO (100%) ([3]; 22Rv1, 0.16µM, 24 h, Fig S6f): 167 +/- 17% | KLHDC2 level relative to DMSO (100%) ([3]; 22Rv1, 0.31µM, 24 h, Fig S6f): 171 +/- 10% | KLHDC2 level relative to DMSO (100%) ([3]; 22Rv1, 0.63µM, 24 h, Fig S6f): 179 +/- 13% | KLHDC2 level relative to DMSO (100%) ([3]; 22Rv1, 1.3µM, 24 h, Fig S6f): 199 +/- 27% | KLHDC2 level relative to DMSO (100%) ([3]; 22Rv1, 2.5µM, 24 h, Fig S6f): 170 +/- 35% | KLHDC2 level relative to DMSO (100%) ([3]; 22Rv1, 5µM, 24 h, Fig S6f): 238 +/- 26% | KLHDC2 level relative to DMSO (100%) ([3]; 22Rv1, 10µM, 24 h, Fig S6f): 356 +/- 37% | KLHDC2 level relative to DMSO (100%) ([3]; 293T, 2.5µM, 24 h, Fig S6a): 130 +/- 3.8% | KLHDC2 level relative to DMSO (100%) ([3]; 293T, 5µM, 24 h, Fig S6a): 132 +/- 4.4% | KLHDC2 level relative to DMSO (100%) ([3]; AU565, 0.2µM, 8 h, Fig S6c): 96 +/- 4.5% | KLHDC2 level relative to DMSO (100%) ([3]; AU565, 1µM, 8 h, Fig S6c): 102 +/- 8.6% | KLHDC2 level relative to DMSO (100%) ([3]; AU565, 5µM, 8 h, Fig S6c): 104 +/- 6.7% | KLHDC2 level, Western blot quantification ([3]; Fig 6b, KO/Rescue, 5 uM, DMSO printed 0): 0 | KLHDC2 level, Western blot quantification (DMSO = 100) ([3]; Fig 6b, U2OS, 5 uM): 114.478 and 116.145 | KLHDC2 level, Western blot quantification (DMSO = 100) ([3]; Fig 6c, 1 uM): 373.51 and 441.349 | KLHDC2 level, Western blot quantification (DMSO = 100) ([3]; Fig 6d, 1 uM): 1598.67 and 1321.11 | KLHDC2 level, Western blot quantification (DMSO = 100) ([3]; Fig 6d, 1uM together with 1uM MLN4924): 4337 and 4000.23 | KLHDC2 level, Western blot quantification (DMSO = 100) ([3]; Fig S6a, 293T cells, 2.5 uM): 127.565 and 133 | KLHDC2 level, Western blot quantification (DMSO = 100) ([3]; Fig S6a, 293T cells, 5 uM): 128.652 and 135 | KLHDC2 level, Western blot quantification (DMSO = 100) ([3]; Fig S6b, MDA-MB468 Cells, 2 uM): 157.366 and 160 | KLHDC2 level, Western blot quantification (DMSO = 100) ([3]; Fig S6b, MDA-MB468 Cells, 5 uM): 170.896 and 175 | KLHDC2 level, Western blot quantification (DMSO = 100) ([3]; Fig S6b, MDA-MB468 Cells, 10 uM): 190.223 and 200 | KLHDC2 level, Western blot quantification (DMSO = 100) ([3]; Fig S6c, AU565 Cells, 0.2 uM): 94.0454 and 99.4615 | KLHDC2 level, Western blot quantification (DMSO = 100) ([3]; Fig S6c, AU565 Cells, 1 uM): 108.13 and 96.9184 | KLHDC2 level, Western blot quantification (DMSO = 100) ([3]; Fig S6c, AU565 Cells, 5 uM): 108.427 and 99.9384 | KLHDC2 level, Western blot quantification (DMSO = 100) ([3]; Fig S6f, 22RV1 KO/rescue Dose Response, 0.156 uM): 180 and 155 | KLHDC2 level, Western blot quantification (DMSO = 100) ([3]; Fig S6f, 22RV1 KO/rescue Dose Response, 0.313 uM): 178 and 164 | KLHDC2 level, Western blot quantification (DMSO = 100) ([3]; Fig S6f, 22RV1 KO/rescue Dose Response, 0.625 uM): 188 and 170 | KLHDC2 level, Western blot quantification (DMSO = 100) ([3]; Fig S6f, 22RV1 KO/rescue Dose Response, 1.25 uM): 219 and 180 | KLHDC2 level, Western blot quantification (DMSO = 100) ([3]; Fig S6f, 22RV1 KO/rescue Dose Response, 2.5 uM): 149 and 192 | KLHDC2 level, Western blot quantification (DMSO = 100) ([3]; Fig S6f, 22RV1 KO/rescue Dose Response, 5 uM): 256 and 220 | KLHDC2 level, Western blot quantification (DMSO = 100) ([3]; Fig S6f, 22RV1 KO/rescue Dose Response, 10uM): 382 and 330 | KLHDC2 level, Western blot quantification (DMSO = 100) ([3]; Fig S6g, SKBR3 Time course, 1 uM, 2hr): 96.2473 and 100.234 | KLHDC2 level, Western blot quantification (DMSO = 100) ([3]; Fig S6g, SKBR3 Time course, 1 uM, 4hr): 98.547 and 105.246 | KLHDC2 level, Western blot quantification (DMSO = 100) ([3]; Fig S6g, SKBR3 Time course, 1 uM, 8hr): 108.754 and 118.735 | KLHDC2 level, Western blot quantification (DMSO = 100) ([3]; Fig S6g, SKBR3 Time course, 5 uM, 2hr): 110.116 and 102.856 | KLHDC2 level, Western blot quantification (DMSO = 100) ([3]; Fig S6g, SKBR3 Time course, 5 uM, 4hr): 118.1 and 127.234 | KLHDC2 level, Western blot quantification (DMSO = 100) ([3]; Fig S6g, SKBR3 Time course, 5 uM, 8hr): 125.323 and 132.123
